Data as given in patent US20180206499A1, “METHOD OF IMPROVING PLANT HEALTH AND ROOTING OF PLANTS” (Bayer CropScience LP, priority 2017, published 2018).

How the values were obtained:
Format in all cases: in vivo
[1] = tested on: Shortleaf pine (P. echinata); assay: Pinus echinata seed pot test, soil sprayed with indaziflam composition; conditions: soil spray; for root weight: untreated root approx. 0.05 grams; for shoot weight: untreated shoot approx. 0.10 grams
Method: Shortleaf pine (P. echinata) seeds were soaked in water for 24 hours and then placed in cold storage in a punctured bag for four weeks.
(§1) 20 seeds were placed in pots on soil surface and topdressed with one cup of sandy loam soil, about ⅛″ to ¼″ deep. The pots were irrigated and allowed to settle for 24 hours.
The soil was sprayed with a commercially available composition comprising indaziflam (commercial name […]) using a single nozzle with a compressed CO2 backpack set at 32 psi for 25 gallons per acre. Overhead irrigation was set for twice daily.

[2] = tested on: Loblolly pine (P. taeda); assay: Pinus taeda seed pot test, soil sprayed with indaziflam composition; conditions: Esplanade 200SC soil spray; for root weight: untreated root approx. 0.06 grams; for shoot weight: untreated shoot approx. 0.19 grams
Method: Loblolly pine (P. taeda) seeds were soaked in water for 24 hours and then placed in cold storage in a punctured bag for four weeks.
as §1
(§2) The soil was sprayed with a commercially available composition comprising indaziflam (commercial name Esplanade 200SC) using a single nozzle with a compressed CO2 backpack set at 32 psi for 25 gallons per acre. Overhead irrigation was set for twice daily.

[3] = tested on: Virginia pine (P. virginiana); assay: Pinus virginiana seed pot test, soil sprayed with indaziflam composition; conditions: Esplanade 200SC soil spray; for root weight: untreated root approx. 0.05 grams; for shoot weight: untreated shoot approx. 0.11 grams
Method: Virginia pine (P. virginiana) seeds were soaked in water for 24 hours and then placed in cold storage in a punctured bag for four weeks.
as §1, §2

## Cc1ccc2c(c1)[C@H](Nc1nc(N)nc(C(C)F)n1)[C@@H](C)C2 (mixture of isomers) [indaziflam, N2[(1R,2S)-2,3-dihydro-2,6-dimethyl-1H-inden-1-yl]-6-[(1RS)-1-fluoroethyl]-1,3,5-triazine-2,4-diamine]
[1]; 50 g indaziflam per hectare
  root weight: approximately 0.13 grams
  shoot weight: approximately 0.34 grams
[1]; 71.4 g indaziflam per hectare
  root weight: approximately 0.27 grams
  shoot weight: approximately 0.40 grams
[1]; 100 g indaziflam per hectare
  root weight: approximately 0.22 grams
  shoot weight: approximately 0.24 grams
[2]; 50 g indaziflam per hectare
  root weight: approximately 0.15 grams
  shoot weight: approximately 0.30 grams
[2]; 71.4 g indaziflam per hectare
  root weight: approximately 0.25 grams
  shoot weight: approximately 0.50 grams
[2]; 100 g indaziflam per hectare
  root weight: approximately 0.14 grams
  shoot weight: approximately 0.22 grams
[3]; 50 g indaziflam per hectare
  root weight: approximately 0.14 grams
  shoot weight: approximately 0.23 grams
[3]; 71.4 g indaziflam per hectare
  root weight: approximately 0.27 grams
  shoot weight: approximately 0.41 grams
[3]; 100 g indaziflam per hectare
  root weight: approximately 0.22 grams
